Measured values taken from the supplement of paper PMC4862054.

Assays:
Settings in all cases: incubation time: 72 h
[1] = tested on: CAL-148; assay: normalised response (% of control), CellTiter-Glo; higher = more viable cells (100 = DMSO, 0 = benzethonium chloride kill control)
Method: (§1)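 DSRT, 72 h incubation, CellTox Green / CellTiter-Glo readout. Signal is normalised to DMSO and benzethonium chloride controls. Value is the normalised response at the highest dose.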

[2] = tested on: MCF-10A; assay: as above
Method: as §1

[3] = tested on: HCC1599; assay: as above
Method: as §1

[4] = tested on: MDA-MB-468; assay: as above
Method: as §1

[5] = tested on: MFM-223; assay: as above
Method: as §1

[6] = tested on: HCC1143; assay: as above
Method: as §1

[7] = tested on: CAL-85-1; assay: as above
Method: as §1

[8] = tested on: BT-474; assay: as above
Method: as §1

[9] = tested on: CAL-51; assay: as above
Method: as §1

[10] = tested on: Hs578T; assay: as above
Method: as §1

[11] = tested on: HCC1937; assay: as above
Method: as §1

[12] = tested on: MDA-MB-453; assay: as above
Method: as §1

[13] = tested on: MDA-MB-436; assay: as above
Method: as §1

[14] = tested on: BT-549; assay: as above
Method: as §1

[15] = tested on: SK-BR-3; assay: as above
Method: as §1

[16] = tested on: HDQ-P1; assay: as above
Method: as §1

[17] = tested on: MDA-MB-231; assay: as above
Method: as §1

[18] = tested on: CAL-120; assay: as above
Method: as §1

[19] = tested on: DU-4475; assay: as above
Method: as §1

[20] = tested on: CAL-148; assay: normalised response (% of control), CellTox Green; higher = less cell death (100 = DMSO, 0 = benzethonium chloride kill control)
How it was run: (§2)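 Values are normalised signals, each belonging to one concentration of the series. Breast cancer cells (20 µl suspension) were seeded into 384-well plates with compound at 5 concentrations in 10-fold steps over a compound-specific 10,000-fold range and incubated 72 h. Readouts were CellTox Green fluorescence (485/520 nm), then CellTiter-Glo luminescence after 10 min at room temperature, with each plate set to 0.1 % DMSO as 100 and a positive kill control as 0.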

[21] = tested on: MCF-10A; assay: as above
How it was run: as §2

[22] = tested on: HCC1599; assay: as above
How it was run: as §2

[23] = tested on: MDA-MB-468; assay: as above
How it was run: as §2

[24] = tested on: MFM-223; assay: as above
How it was run: as §2

[25] = tested on: HCC1143; assay: as above
How it was run: as §2

[26] = tested on: CAL-85-1; assay: as above
How it was run: as §2

[27] = tested on: BT-474; assay: as above
How it was run: as §2

[28] = tested on: CAL-51; assay: as above
How it was run: as §2

[29] = tested on: Hs578T; assay: as above
How it was run: as §2

[30] = tested on: HCC1937; assay: as above
How it was run: as §2

[31] = tested on: MDA-MB-453; assay: as above
How it was run: as §2

[32] = tested on: MDA-MB-436; assay: as above
How it was run: as §2

[33] = tested on: BT-549; assay: as above
How it was run: as §2

[34] = tested on: HDQ-P1; assay: as above
How it was run: as §2

[35] = tested on: MDA-MB-231; assay: as above
How it was run: as §2

[36] = tested on: CAL-120; assay: as above
How it was run: as §2

[37] = tested on: DU-4475; assay: as above
How it was run: as §2

SMILES	normalised response [1] [%]	normalised response [2] [%]	normalised response [3] [%]	normalised response [4] [%]	normalised response [5] [%]	normalised response [6] [%]	normalised response [7] [%]	normalised response [8] [%]	normalised response [9] [%]	normalised response [10] [%]	normalised response [11] [%]	normalised response [12] [%]	normalised response [13] [%]	normalised response [14] [%]	normalised response [15] [%]	normalised response [16] [%]	normalised response [17] [%]	normalised response [18] [%]	normalised response [19] [%]	normalised response [20] [%]	normalised response [21] [%]	normalised response [22] [%]	normalised response [23] [%]	normalised response [24] [%]	normalised response [25] [%]	normalised response [26] [%]	normalised response [27] [%]	normalised response [28] [%]	normalised response [29] [%]	normalised response [30] [%]	normalised response [31] [%]	normalised response [32] [%]	normalised response [33] [%]	normalised response [34] [%]	normalised response [35] [%]	normalised response [36] [%]	normalised response [37] [%]
CN(C)C[C@@H]1CCn2cc(c3ccccc32)C2=C(C(=O)NC2=O)c2cn(c3ccccc23)CCO1 [Ruboxistaurin] (10000 nM)	0.12	42.6	78.9	1.42	34.9	48.1	1.43	4.02	7.88	70.6	38.5	0.01	3.33	10.1	-0.11	35	0.34	55.2	62.1	10.5	54.2	91.6	-88	73.5	103	-82.9	-10.6	-50.2	62.9	33	9.28	-6.73	30.4	26.2	-85	76.3	92.1
C[C@]12CC[C@H](O)CC1=CC[C@@H]1[C@@H]2CC[C@]2(C)C(c3cccnc3)=CC[C@@H]12 [Abiraterone] (5000 nM)	104	109	107	99.3	103	97.1	112	97	98.4	102	97.7	112	100	96.4	104	104	101	103	99.6	87.5	76.5	113	151	101	107	77.8	99.7	96.6	116	120	110	111	128	62.7	122	98	111
CC(C)c1c(C(=O)Nc2ccccc2)c(-c2ccccc2)c(-c2ccc(F)cc2)n1CC[C@@H](O)C[C@@H](O)CC(=O)O [Atorvastatin] (10000 nM)	94.8	4.77	83.4	19.1	76.1	55.3	52.7	11.1	21.2	37.8	68.3	89.7	71.4	70	79.8	44	3.78	47.4	87.4	99.2	1.75	103	121	101	101	86.1	104	-23.5	7.6	92.4	88	83	102	85.6	-37.9	45.3	98
O=C1NC(=O)[C@@H](c2cn3c4c(cccc24)CCC3)[C@@H]1c1c[nH]c2ccccc12 [Tivantinib] (1000 nM)	41.5	58.1	47.9	29.7	60	53.5	30.6	60.2	38.7	24.6	69.4	54.3	43.6	35.4	16.4	69.9	56.2	49.4	71.6	71.5	57.7	77.5	60.4	76.4	104	20.5	76	26.8	52.5	84.5	96.2	68.1	85.3	80.2	11.1	74.4	93.6
O=C(O)CCCc1ccc(N(CCCl)CCCl)cc1 [Chlorambucil] (10000 nM)	103	97.3	89.3	94.1	108	96.9	96.2	96	117	103	94.9	123	81.3	91.9	101	101	97.6	100	96.9	95.3	83	105	141	99.2	102	82.5	99.8	81.7	124	105	102	66.2	78.8	104	104	102	98.1
